# From publication PMC5482845 (Scientific Reports, 2017)
# Read-outs that look alike come from different tables or passages of the source.
# Assays:
# SOAT1 and SOAT2 = test system: SOAT1 and SOAT2; parameters: method as in PMID 14617738, PMID 17390588, PMID 16820149, PMID 16730694, PMID 16626720; conditions: cited from earlier work
# atherosclerotic lesions = test system: atherosclerotic lesions; parameters: method as in PMID 17803269, PMID 14718664; conditions: orally active; apolipoprotein E knockout mice and low density lipoprotein receptor knockout mice; cited from earlier work
# SOAT2 [1] = target: T1, SOAT2 (Homo sapiens, UniProt O75908); experiment: [14C]CE synthesis in intact hSOAT2-CHO cells (cell-based assay)
# T1 construct: expressed in transfected cells; host or cells: CHO cells (AC29, SOAT-deficient)
# T1 sequence (O75908 1-522): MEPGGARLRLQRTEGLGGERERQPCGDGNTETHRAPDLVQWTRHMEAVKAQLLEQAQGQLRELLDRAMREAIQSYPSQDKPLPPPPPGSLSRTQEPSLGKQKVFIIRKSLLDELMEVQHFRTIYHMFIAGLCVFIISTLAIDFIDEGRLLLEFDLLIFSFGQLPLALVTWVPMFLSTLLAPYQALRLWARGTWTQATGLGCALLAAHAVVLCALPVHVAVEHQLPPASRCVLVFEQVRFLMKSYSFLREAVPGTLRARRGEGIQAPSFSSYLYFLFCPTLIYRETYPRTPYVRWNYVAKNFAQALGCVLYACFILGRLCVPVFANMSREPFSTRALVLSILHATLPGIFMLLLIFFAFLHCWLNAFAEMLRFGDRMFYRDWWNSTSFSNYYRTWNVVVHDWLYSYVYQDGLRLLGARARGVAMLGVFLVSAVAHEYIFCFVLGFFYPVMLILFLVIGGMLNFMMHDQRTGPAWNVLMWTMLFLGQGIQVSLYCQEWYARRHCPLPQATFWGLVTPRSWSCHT
# Experimental: CHO cells (AC29 cells, SOAT-deficient cells)[37] expressing the SOAT1 or SOAT2 gene from African Green monkeys and humans were cultured by the method described previously.
# The assay for the synthesis of [^14C]cholesteryl ester (CE) from [^14C]oleic acid in intact SOAT1- or SOAT2-CHO cells was performed according to our established method.
# SOAT2 [2] = target: T2, SOAT2 (Chlorocebus aethiops, UniProt O77759); conditions: enzyme-based assay; African green monkey; cited from earlier work
# T2 construct: expressed in transfected cells; host or cells: CHO cells (AC29, SOAT-deficient)
# T2 sequence (O77759 1-526): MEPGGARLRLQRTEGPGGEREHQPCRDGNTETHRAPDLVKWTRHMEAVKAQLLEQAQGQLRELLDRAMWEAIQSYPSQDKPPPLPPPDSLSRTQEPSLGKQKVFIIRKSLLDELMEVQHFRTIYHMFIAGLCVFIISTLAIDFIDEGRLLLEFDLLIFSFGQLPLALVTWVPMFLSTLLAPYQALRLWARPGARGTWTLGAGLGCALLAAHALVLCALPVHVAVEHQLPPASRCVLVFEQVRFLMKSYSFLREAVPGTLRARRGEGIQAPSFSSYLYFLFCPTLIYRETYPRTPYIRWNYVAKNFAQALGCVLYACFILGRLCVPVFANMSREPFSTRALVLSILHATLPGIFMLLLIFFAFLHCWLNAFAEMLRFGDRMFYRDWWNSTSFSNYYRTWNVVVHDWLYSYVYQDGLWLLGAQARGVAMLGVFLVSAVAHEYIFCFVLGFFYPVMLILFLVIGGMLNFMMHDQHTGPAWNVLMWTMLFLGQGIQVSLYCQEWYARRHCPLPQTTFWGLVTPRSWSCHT
# SOAT2 [3] = target: T1, SOAT2; experiment: Enzyme-based SOAT assay, microsomes from hSOAT2-CHO cells (Potter-type homogenizer); format: biochemical
# Experimental: An enzyme source from SOAT1-/SOAT2-CHO cells using a Potter-type homogenizer was prepared using our established method[18]. Briefly, SOAT1 or SOAT2-CHO cells (2.0 × 10^8 cells) were homogenized in 5 ml cold buffered sucrose solution (pH 7.2, 100 mM sucrose, 50 mM KCl, 40 mM KH2PO4, and 30 mM EDTA, hereafter referred to as Buffer A) including protease inhibitors (Complete mini (Roche)) in the Potter-type homogenizer. The microsomal fraction was pelleted by centrifugation at 100,000 × g at 4.0 °C for 1.0 h (TLA110, Beckman Coulter), resuspended in the same buffer at a concentration of 5.0 mg protein/ml, and stored at −80 °C until used.
# SOAT1 and SOAT2 activities were measured using fractionation prepared as described above as an enzyme source[18]. Briefly, an assay mixture was made containing 500 µg BSA (fatty acid free) and [1-^14C]oleoyl-CoA (20 µM, 3.7 kBq). A test sample (5.0 µl in methanol solution) and microsomes or the ER fractionation of SOAT1- and SOAT2-CHO cells in a total volume of 200 µl Buffer A was incubated at 37 °C. The SOAT reaction was started by adding [1-^14C]oleoyl-CoA. After a 5-min incubation, the reaction was stopped by adding chloroform: methanol (2:1, 1.2 ml). […] After the organic solvent was removed by evaporation, lipids were separated on a TLC plate and the radioactivity of [^14C]CE was measured by our established method[18].
# SOAT1 [4] = target: T3, SOAT1 (Mus musculus, UniProt Q61263); experiment: Immunofluorescence staining of SOAT1 and Biotin-Beau in mouse peritoneal macrophages; format: cell-based; conditions: Biotin-Beau 9.8 µM
# T3 construct: endogenous in cells; host or cells: primary mouse peritoneal macrophages (ICR mice)
# T3 sequence (Q61263 1-540): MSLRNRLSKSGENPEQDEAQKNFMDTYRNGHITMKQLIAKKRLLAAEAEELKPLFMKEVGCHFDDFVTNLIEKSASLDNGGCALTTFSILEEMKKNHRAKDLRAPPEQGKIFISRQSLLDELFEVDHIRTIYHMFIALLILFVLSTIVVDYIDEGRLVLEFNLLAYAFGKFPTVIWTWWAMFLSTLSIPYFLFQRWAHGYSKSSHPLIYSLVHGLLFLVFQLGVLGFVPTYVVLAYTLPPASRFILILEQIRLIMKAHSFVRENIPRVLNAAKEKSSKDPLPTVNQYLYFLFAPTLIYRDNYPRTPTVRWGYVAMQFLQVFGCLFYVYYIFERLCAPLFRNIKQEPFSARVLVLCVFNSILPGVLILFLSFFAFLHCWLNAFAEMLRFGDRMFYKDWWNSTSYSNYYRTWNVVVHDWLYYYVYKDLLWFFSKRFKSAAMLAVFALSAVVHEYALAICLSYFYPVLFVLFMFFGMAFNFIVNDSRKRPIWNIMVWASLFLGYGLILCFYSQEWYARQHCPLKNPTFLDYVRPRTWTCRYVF
# From the text: Supplementary Experiment Methods
# Goat anti-rabbit IgG conjugated to fluorescein isothiocyanate (FITC) was purchased from Sigma-Aldrich (St. Louis, MO). Hank’s balanced salt solution was purchased from Nissui Seiyaku (Tokyo, Japan). Streptavidin conjugated to Alexa Fluor 546 was purchased from Thermo Fisher Scientific (Wa l t h a m , M A). […]
# Immunofluorescence staining of SOAT1 and Biotin-Beau in mouse peritoneal […]
# Mouse peritoneal macrophages from ICR mice (Japan SLC, Inc., Japan) were prepared as described previously1. Briefly, primary mouse peritoneal macrophages (2.0 x 10^5 cells) with liposomes in each well of a tissue culture chamber (LAB-TEK 8-chamber) were incubated at 37°C in 5.0% CO 2. After a 14-h incubation, cells were washed three times with PBS, fixed with 3.7% formalin for 10 min, and permeabilized with PBS containing 0.10% Tr i t o n X-100 at room temperature for 20 min. […]
# After a 1-h incubation, cells were stained with the secondary antibody, a goat anti-rabbit IgG conjugated to FITC ([…]) and streptavidin conjugated to Alexa Fluor 546 (1.0 µg/ml) in blocking buffer, for 1.0 h. Cells were washed three times after the incubation and analyzed with confocal laser scanning microscopy (LSM-510 META, Carl Zeiss, Germany). Images were analyzed with a Zeiss LSM Image Browser (Version 3.5.0.376) […]
# SOAT1 [5] = target: T4, SOAT1 (Chlorocebus aethiops, UniProt O77760); conditions: cited from earlier work
# T4 construct: expressed in transfected cells; host or cells: CHO cells (AC29, SOAT-deficient)
# T4 sequence (O77760 1-550): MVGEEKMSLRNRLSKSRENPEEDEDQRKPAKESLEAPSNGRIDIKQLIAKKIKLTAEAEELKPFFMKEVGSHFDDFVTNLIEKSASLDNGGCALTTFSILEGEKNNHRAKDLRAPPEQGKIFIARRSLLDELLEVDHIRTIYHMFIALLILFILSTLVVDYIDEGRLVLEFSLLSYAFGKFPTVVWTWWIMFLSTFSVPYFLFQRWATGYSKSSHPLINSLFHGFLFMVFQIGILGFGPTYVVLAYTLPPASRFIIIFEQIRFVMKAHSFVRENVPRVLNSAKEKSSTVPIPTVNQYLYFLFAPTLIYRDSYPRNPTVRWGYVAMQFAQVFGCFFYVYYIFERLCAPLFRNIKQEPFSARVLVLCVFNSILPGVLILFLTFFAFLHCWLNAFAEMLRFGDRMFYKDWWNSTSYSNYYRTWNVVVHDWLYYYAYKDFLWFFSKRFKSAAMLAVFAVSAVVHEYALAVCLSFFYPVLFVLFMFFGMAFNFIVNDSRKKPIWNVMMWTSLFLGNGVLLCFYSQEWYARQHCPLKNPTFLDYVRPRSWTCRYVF
# SOAT1 [6] = target: T4, SOAT1; experiment: Interaction of Biotin-Beau-immobilized beads with SOAT1 protein (SDS-PAGE, Western blotting); format: binding, African green monkey; conditions: microsomes from SOAT1-CHO cells, band at approximately 53 kDa, none from AC29 cells or control beads
# From the text: The direct interaction between beauveriolide and SOAT1 was investigated. […] Therefore, Biotin-Beau may be employed as a useful bio-probe to investigate interactions between SOAT1 and beauveriolide. Biotin-Beau was attached to acrylamide-based streptavidin beads, and microsomes prepared from SOAT1-CHO cells and AC29 cells (control, SOAT-deficient CHO cells) were applied to the beads. After washing the beads, bound proteins were recovered with Laemmli sample buffer, separated by SDS-PAGE, and stained with the SOAT1 antibody. […] However, no protein was observed from control AC29 cells (lane (1)) or control beads (no Biotin-Beau-carrying beads) (lane (3)).
# The microsomal fraction (500 µg protein in 100 µl buffer A) prepared from AC29 (SOAT-deficient CHO cells) or amgSOAT1-CHO cells using the Potter-type homogenizer as described above were mixed with 0.10% (v/v) Triton X-100 on ice for 10 min. Biotin-Beau (10 nmol)[11] was attached to acrylamide-based streptavidin beads (5.0 nmol)[39]. Microsomes (500 µg) prepared from AC29 cells or SOAT1-CHO cells were added to Biotin-Beau-carrying beads and mixed well at 4.0 °C for 1.0 h with a rotator. The beads were collected by centrifugation at 1,000 rpm at 4.0 °C for 5.0 min and washed three times with PBS (300 µl). […] After separation by SDS-PAGE, SOAT1 protein levels was measured as described above.
# SOAT1 [7] = target: T4, SOAT1; conditions: enzyme-based assay; African green monkey; cited from earlier work
# SOAT2 [8] = target: T2, SOAT2; conditions: cell-based assay; African green monkey; cited from earlier work
structure (smiles),measurement,setting,value
CCCCCCCCN1CCc2c(C)c(CC(=O)O)c(C)c(NC(=O)C(C)(C)C)c21 [pactimibe],group of SOAT inhibitor from SI values,SOAT1 and SOAT2,dual inhibitors (dual inhibitors (−1.00 ≤ SI ≤+1.00) inhibiting SOAT1 and SOAT2)
CC(C)c1cc(C(C)C)c(CC(=O)NS(=O)(=O)Oc2c(C(C)C)cccc2C(C)C)c(C(C)C)c1 [avasimibe],group of SOAT inhibitor from SI values,SOAT1 and SOAT2,dual inhibitors (dual inhibitors (−1.00 ≤ SI ≤+1.00) inhibiting SOAT1 and SOAT2)
CCCC[C@H](C)[C@@H]1CC(=O)N[C@@H](Cc2ccccc2)C(=O)N[C@@H](C)C(=O)N[C@H]([C@@H](C)CC)C(=O)O1 [Beauveriolide III],effect on atherosclerotic lesions,atherosclerotic lesions,reducing atherosclerotic lesions in the aortae and hearts
CSc1cc(C)nc(SC)c1NC(=O)CN1CCN(CCSc2nc3ccccc3[nH]2)CC1 [K-604],group of SOAT inhibitor from SI values,SOAT1 and SOAT2,"SOAT1-selective inhibitors (SOAT1-selective inhibitors (SI, <−1.00))"
CCCC[C@H](C)[C@@H]1CC(=O)N[C@@H](Cc2ccccc2)C(=O)N[C@@H](C)C(=O)N[C@H](CC(C)C)C(=O)O1 [Beauveriolide I],IC50,SOAT2 [1],> 20 µM
same,IC50,SOAT2 [2],1.9 µM
same,IC50,SOAT2 [3],1100 nM
CCCC[C@H](C)[C@@H]1CC(=O)N[C@@H](C(c2ccccc2)c2ccccc2)C(=O)N[C@H](Cn2cc(CNC(=O)CCCCNC(=O)CCCC[C@@H]3SC[C@@H]4NC(=O)N[C@@H]43)nn2)C(=O)N[C@H](C2CCCCC2)C(=O)O1 [Biotin-labeled beauveriolide],cellular localization relative to SOAT1,SOAT1 [4],colocalized with a restricted area of SOAT1 protein distribution
same,effect on CE synthesis,SOAT1 [5]; cell-based assay using SOAT1-/SOAT2-CHO cells,no effect on CE synthesis
same,IC50,"SOAT1 [5]; cell-based assay, African green monkey",> 10 µM
same,IC50,SOAT2 [2],8 µM
same,binding to SOAT1 protein,SOAT1 [6],bound to the SOAT1 protein
same,binding to SOAT1 protein,SOAT1 [6]; listed as Biotin-Beau,directly binds to the SOAT1 protein
same,IC50,SOAT1 [7],0.6 µM
same,SI (type),SOAT1 [7],"SOAT1 (SOAT1-selective type, SI < −1.00)"
same,IC50,SOAT2 [8],> 10 µM
